Reference: patent publication US20230310356A1, “COMPOSITION FOR PREVENTING, AMELIORATING, OR TREATING BRAIN DAMAGE AND MILD COGNITIVE IMPAIRMENT COMPRISING GLUTAMINE AS EFFECTIVE COMPONENT” (INDUSTRY-ACADEMIC COOPERATION FOUNDATION GYEONGSANG …, priority 2020, published 2023)
Entries after “also recorded” stand apart in the source; their conditions may differ.

Experiments:
[1] = tested on: 3×TG-AD female mouse (model of Alzheimer's disease); experiment: ORT cognitive ability test in animal model of Alzheimer's disease with glutamine diet; format: in vivo; conditions: 6-weel old compared to the 2-weeks old
Method: As an animal model for cognitive ability evaluation, a 7-weeks old 3×TG-AD female mouse (8 mice. model of Alzheimer's disease) and a C57BL/6 female mouse (10 mice, control) were selected. The animals of each type were divided into 2 groups, and each group was provided with regular animal feed (i.e., normal diet, ND) or glutamine feed (Gln). The glutamine diet group was allowed to consume the feed containing 150 mg glutamine/kg diet, from 2-months old stage to the end of test (i.e., 6 to 7-months old stage). Health state of the animal was checked by measuring, once a week, the bodyweight of the animal and food intake (FIG. 7A). Cognitive ability test of the mouse as an animal model established above was determined by ORT (object recognition test). The animal was habituated in a box for 2 days. On Day 3, it was allowed to explore two identical objects for 10 minutes. On Day 4, one of the two objects was replaced with a novel object, and then, the animal was allowed to explore further for 5 minutes (FIG. 7B). The time spent by animal for exploring after approaching within 1 cm from the periphery of both objects was measured. After carrying out the calculation using Formula (3) below, DI (discrimination index) was calculated and compared to each other. In the present invention, a different novel object was employed for carrying out each test. […]

[2] = tested on: C57BL/6 male mice applied with chronic immobilization stress; experiment: Behavior analysis by ORT and OLT after CIS and glutamine supplementation; format: in vivo, mouse; conditions: STR+Gln vs STR; glutamine 150 mg/kg of feed, after 15 days stress
Method: Control (CTL) is a group which received normal diet (common diet with nutritional balance) without any stress, CTL+Gln group is a normal diet group supplemented with glutamine (150 mg/kg of feed) and without any stress, STR is a normal diet group under stress, and STR+Gln group is a normal diet group supplemented with glutamine (150 mg/kg of feed) under stress. The stress group (STR) was individually brought by force to a restrainer for 2 hours every day (i.e., between 2 PM and 4 PM) so that the animals are applied with chronic immobilization stress for 15 days. By using the cohorts of Example 1, behavior analysis was carried out. After applying the stress for 15 days, behavior analysis was immediately carried out. ORT includes three separate sessions, i.e., habituation, familiarization, and test. During 2 days of the habituation, the animals were allowed to stay in an empty open space for 10 minutes a day. After the habituation, they were subjected to familiarization by placing two identical objects in the open space. Mice of each test group were allowed to explore freely the object for 10 minutes. […] Discrimination index (DI) in ORT was then calculated according to the following formula (1). […] Discrimination index (DI) in OLT was then calculated according to the following formula (2). […]

[3] = tested on: amyloid beta 42 (Aβ42); experiment: Aβ42 in neuronally derived blood exosome (NDE) by ELISA after glutamine diet; format: in vivo, mouse; conditions: female 3×TG-AD, 3×TG+Gln vs 3×TG, after test with 6-months old animals
Method: As an animal model for cognitive ability evaluation, a 7-weeks old 3×TG-AD female mouse (8 mice. model of Alzheimer's disease) and a C57BL/6 female mouse (10 mice, control) were selected. The animals of each type were divided into 2 groups, and each group was provided with regular animal feed (i.e., normal diet, ND) or glutamine feed (Gln). The glutamine diet group was allowed to consume the feed containing 150 mg glutamine/kg diet, from 2-months old stage to the end of test (i.e., 6 to 7-months old stage). Health state of the animal was checked by measuring, once a week, the bodyweight of the animal and food intake (FIG. 7A). After the cognitive ability test with 6-months old animals, the mouse was sacrificed using carbon dioxide and a change in neuronally derived blood exosome (NDE) protein was determined. Total exosomes were separated from serum, and, after a reaction for 1 hour with anti-CD171 antibody, they were reacted for 1 hour with streptavidin-fused magnetic beads. After that, elution was carried out using 0.05 M glycine-HCl (pH 3.0), and then addition of 1 M Tris-HCl (pH 8.0) was made. Analysis was then made by using amyloid beta 42 (Aβ42) mouse ELISA kit.

## NC(=O)CC[C@H](N)C(=O)O [glutamine]
[1]; 3×TG-AD glutamine diet group, 150 mg glutamine/kg diet
  impairment in cognitive ability (object recognition ability, ORT): no significant impairment
[1]; 3×TG-AD group with glutamine diet, average from each individual
  decrease of DI value in ORT: 0.1
[2]
  discrimination index (DI) in OLT: higher DI
  discrimination index (DI) in ORT: higher DI
[3]
  Aβ42 in NDE (neuronally derived blood exosome): statistically significant decrease; also recorded: suppressed
